These results are taken from patent US20230381141A1, “CONJOINT THERAPIES FOR TREATING VIRAL INFECTIONS” (priority 2022, published 2023).

Data set [1] deals with IFN induction (IRF3 reporter). Nature of the data set: IFN induction assay, IRF3 binding site Firefly luciferase reporter with poly(I:C). Format: cell-based. In general terms: Reporter assays use an easily measured gene product as a stand-in for the process of interest.
Data set [2] relates to IFN-β induction in HEK293T cells expressing SARS-CoV-2 PL^pro. The format is cell-based.
Data set [3] concerns SARS-CoV-2. The note with it: cited from earlier work; for EC50: read-out: antiviral EC50; for EC90: read-out: antiviral EC90.
The test system of data set [4] is Vero E6 normal cells. The note with it: cited from earlier work.
Data set [5] is described as follows: Brain drug level in mice by LC-MS/MS. The note with it: for concentration at 2 h: male, C57BL/6, mouse, brain, po, 30 mg/kg; for brain permeability: pilot PK studies in mice.
Text: (§3) Two hours after dosing, mice were anesthetized and blood was collected following transcardial puncture for the isolation of plasma. Mice were then perfused transcardially with saline and brain tissue removed.
Data set [6] in a line: Plasma drug level in mice by LC-MS/MS. The following applies: C57BL/6, mouse.
Experimental: Following compound administration, mice were euthanized at 2 hours, followed by perfusion.
as §3
Data set [7] has as its target PL^pro (Severe acute respiratory syndrome coronavirus 2, UniProt P0DTD1). The following applies: read-out: reported PL^pro IC50; cited from earlier work.
For data set [8] the following is noted: cited from earlier work.
In data set [9] the target is SARS-CoV-2 PL^pro (Severe acute respiratory syndrome coronavirus 2, UniProt P0DTD1). The experiment in a line: biochemical. The following applies: for inhibition at 50 µM: read-out: inhibition of PL^pro activity in library screening.
The target in data set [10] is PL^pro deubiquitinase activity (Severe acute respiratory syndrome coronavirus 2, UniProt P0DTD1). The experiment in a line: PL^pro deubiquitinase substrate assay. The format is biochemical, SARS-CoV-2. Here is the method: (§1) Briefly, in each assay, the enzyme was loaded into each well in the appropriate buffer, next the compounds were added into the well and incubated for 10-60 min at 37° C. The reaction was initiated by addition of substrate to each well and the fluorescent signal was read for 60 min at the appropriate excitation/emission.
(§2) For the PL^pro and PL^pro deubiquitinase assays, DTT was added to the assay buffer to achieve 1 mM DTT before the assay. A 10 mM stock of compounds was prepared in DMSO, this stock was diluted in assay buffer to achieve a 10× of the desire concentration in the well. Next, the PL^pro and deubiquitinase substrates were diluted to 42 μM and 0.5 μM respectively in the assay buffer. Then, PL^pro enzyme was diluted to 2.5 ng/μL and 6 ng/μL for the PL^pro and deubiquitinase assays respectively in the assay buffer. […] The reaction was started by adding 12.5 μL of the substrate to each well, the reaction was monitored for 1 h at excitation at 360 nm; emission at 460 nm. For the ISG15 substrate, PL^pro enzyme at 0.1 nM was incubated with compounds for lh and the reaction was initiated by adding ISG15-RH110 substrate at 500 nM, the reaction was monitored for 1-hour excitation at 485 nm; emission at 535 nm. […] Following the incubation, 2 μL of substrate at 25 μM was added into the wells and the fluorescent signal (ex/em 380/455 nm) was recorded for 1 h at 37° C.

The target of data set [11] is PL^pro ISG15 cleavage activity (Severe acute respiratory syndrome coronavirus 2, UniProt P0DTD1). The experiment in a line: PL^pro ISG15 substrate (deISGylase) assay. Format: biochemical, SARS-CoV-2. Here is the method:
as §1, §2

The target in data set [12] is SARS-CoV-2 M^pro (Severe acute respiratory syndrome coronavirus 2, UniProt P0DTD1). Nature of the data set: M^pro activity assay, fluorogenic substrate. Format: biochemical. The note with it: alone, FIG. 7B.
For data set [13], the target named is spike protein-ACE2 complex (UniProt P0DTC2+Q9BYF1). The following applies: separate study; cited from earlier work.
[14] abbreviates: 1 μM, poly I:C, Wuhan strain PL^pro.
Where [15] appears, read: SARS-CoV-2 infected VeroE6 cells.
The mark [16] stands for this setting: po, 30 mg/kg, plasma levels in combination DDL-701+DDL-750, mice, oral gavage 30 mg/kg, combination, FIG. 5.
Setting [17] is: po, 30 mg/kg, plasma levels, mice, oral gavage 30 mg/kg, given alone, FIG. 5.
[18] abbreviates: male, oral, plasma levels in combination, mice, DDL-701 + DDL-750 both 30 mg/Kg oral, FIG. 9.
The mark [19] stands for this setting: male, po, 30 mg/kg, plasma levels, mice, oral 30 mg/Kg, given alone, FIG. 9.
Setting [20] is: read-out: Cmax in human plasma after oral dosing, oral dosing.
[21] abbreviates: PL^pro peptide substrate, dose response, read-out: IC50 PL^pro inhibition.
Where [22] appears, read: in combination with DDL-750 or DDL-750/DDL-751, FIG. 2.
The mark [23] stands for this setting: Vero E6 cells infected with SARS-CoV-2.

Several values for one entry are separate records, joined by “and”; a condition that tells them apart may be missing. Identical values can stand only once. Entries after “also recorded” stand apart in the source; their conditions may differ. Like-named read-outs stand apart in the source and are kept apart here.

Chain of spike protein-ACE2 complex (Q9BYF1 18-805, one chain of several): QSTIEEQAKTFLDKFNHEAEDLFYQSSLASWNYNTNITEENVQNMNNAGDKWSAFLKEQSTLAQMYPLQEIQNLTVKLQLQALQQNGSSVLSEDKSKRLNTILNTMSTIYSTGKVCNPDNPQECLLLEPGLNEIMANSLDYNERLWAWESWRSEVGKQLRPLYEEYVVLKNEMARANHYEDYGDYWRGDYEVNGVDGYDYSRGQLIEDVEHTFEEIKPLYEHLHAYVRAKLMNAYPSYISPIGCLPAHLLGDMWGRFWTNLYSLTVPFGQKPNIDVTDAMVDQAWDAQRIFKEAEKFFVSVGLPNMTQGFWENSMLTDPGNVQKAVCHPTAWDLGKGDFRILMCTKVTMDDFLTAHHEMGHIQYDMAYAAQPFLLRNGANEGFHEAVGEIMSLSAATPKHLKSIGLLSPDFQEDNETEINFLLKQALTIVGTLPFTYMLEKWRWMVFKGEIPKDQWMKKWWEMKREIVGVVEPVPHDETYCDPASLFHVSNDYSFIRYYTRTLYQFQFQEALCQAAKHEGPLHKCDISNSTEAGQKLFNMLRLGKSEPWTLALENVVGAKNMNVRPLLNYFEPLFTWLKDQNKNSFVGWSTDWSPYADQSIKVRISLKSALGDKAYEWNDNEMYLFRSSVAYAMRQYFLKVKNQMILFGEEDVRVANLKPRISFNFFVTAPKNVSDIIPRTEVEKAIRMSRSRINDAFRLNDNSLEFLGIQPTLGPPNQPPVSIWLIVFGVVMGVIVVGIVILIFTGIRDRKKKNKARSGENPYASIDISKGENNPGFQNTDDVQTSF

For `CC(C)(C)[C@H](NC(=O)C(F)(F)F)C(=O)N1C[C@H]2[C@@H]([C@H]1C(=O)N[C@H](C#N)C[C@@H]1CCNC1=O)C2(C)C` [DDL-750, nirmatrelvir], in [1] (at 1 μM), the IFN induction result is reported as “approximately 1.3 fold over DMSO”. The “rescue of IFN-β induction in the presence of PL^pro” value (from here on “rescue of IFN-β induction”) in [2] (setting [14]) was “not”; in data set [2] (any dose), “Neither DDL-715 nor DDL-750 rescued IFN-β induction”. In addition, in data set [3] (setting [15]), the EC50 (usually the midpoint of the concentration-response curve) was 0.074 µM. In data set [3] (setting [15]), the EC90 (commonly the point of the concentration-response curve where the effect stands at 90%) was 0.155 µM. In addition, the CC50 (commonly the concentration at which the toxic effect on the cells reaches its halfway point) in data set [4] is > 100 µM. Besides, the concentration at 2 h in data set [5] was ~180 nM and ~91 ng/g; in data set [6] (setting [16]) it was 0.1 µM; in [6] (setting [17]), ~0.4 µM; in data set [6] (setting [18]), ~100 nM and ~55 ng/mL; in [6] (setting [19]), ~500 nM and ~234 ng/mL. Moreover, the brain permeability entry in data set [5] is listed as “lower brain-permeability”.

`O=C(O)c1cc(F)c2nc(N3[C@@H]4CC[C@H]3C[C@@H](OCc3c(-c5ccccc5OC(F)(F)F)noc3C3CC3)C4)sc2c1` [tropifexor]: the IC50 (in general, the concentration at which inhibition is half-maximal) in data set [7] is ~6 µM. In addition, the Cmax (as a rule, the highest concentration seen after dosing) in data set [8] (setting [20]) is < 0.1 µM.

`COc1cc(C(=O)NS(=O)(=O)c2ccccc2C)ccc1Cc1cn(C)c2ccc(NC(=O)OC3CCCC3)cc12` [DDL-715, zafirlukast]: the IC50 in [9] is ~24 µM. For the same molecule, in [9] (compounds at 50 μM), the inhibition (in general, the drop in the measured response relative to a control, in per cent) at 50 µM was > 80%. Moreover, in data set [1] (at 10 and 1 μM), the IFN induction result is given as “approximately 1.5 fold over DMSO”. The “rescue of IFN-β induction” value in [2] (setting [14]) was “not”; in data set [2] (any dose), “Neither DDL-715 nor DDL-750 rescued IFN-β induction”. Also, the Cmax in data set [8] (human, in vivo, po) was ~0.5 µM. For the same molecule, the concentration at 2 h in data set [6] (setting [17]) is ~4 µM.

With `CC1=NN(c2ccc(C)c(C)c2)C(=O)/C1=N/Nc1cccc(-c2cccc(-c3nnn[nH]3)c2)c1O` [DDL-713, thrombopoietin receptor agonist-1], the IC50 in [9] (setting [21]) is ~54 µM. Further, in [9] (compounds at 50 μM), the inhibition at 50 µM was > 80%.

As to `CCCCc1nc(Cl)c(CO)n1Cc1ccc(-c2ccccc2-c2nn[nH]n2)cc1` [losartan], the IC50 in data set [7] was ~13 µM. Moreover, the Cmax in data set [8] (setting [20]) was ~0.5 µM.

Consider `CC1=NN(c2ccc(C)c(C)c2)C(=O)/C1=N/Nc1cccc(-c2cccc(C(=O)O)c2)c1O` [DDL-701, eltrombopag], for which, in data set [9] (DDL-701/750 at 50 μM/0.1 μM, FIG. 7A), the “inhibition of PL^pro by DDL-701 in combination with DDL-750” value is given as “not affected”. The “inhibition of PL^pro” value in data set [9] (DDL-701 alone at 50 μM, FIG. 7A) is “almost complete”. Also, the IC50 came to 13 µM in [9] (setting [21]); 21 µM in [10] (deubiquitinase substrate, dose response); 8 µM in [11] (ISG15 substrate, dose response). In addition, the “PLpro inhibition in combination” value in data set [9] (setting [22]) is reported as “inhibits; also recorded: continues to show its inhibition”. In addition, the inhibition at 50 µM in data set [9] was > 80%. In addition, in data set [10] (setting [22]), the “deubiquitinase inhibition in combination” value is on record as “inhibits”. For the same molecule, the “ISG15 activity inhibition in combination” value in data set [11] (setting [22]) is on record as “inhibits”. For the same molecule, in data set [12], the “activity in M^pro activity assay” value was “did not show activity; also recorded: not M^pro”. The IFN induction result in data set [1] (at 10 and 1 μM) is “approximately 1.5 fold over DMSO”. The “rescue of IFN-β induction” value is given as “modestly yet significantly rescued; also recorded: partially restored” in data set [2] (setting [14]) and “did not rescue induction” in data set [2] (higher concentrations than 1 μM). Moreover, the EC50 is 8.2 µM in [3] (setting [23]) and ~8 µM in data set [3] (Vero cells infected with SARS-CoV-2 (Sangeun J. et al., 2020)). The EC90 in [3] (setting [23]) was 9.5 µM. The CC50 in [4] is > 50 µM. For the same molecule, the “effect on spike protein-ACE2 complex” value in [13] was “bind and reduce the stability”. The AUC (usually concentration integrated over time) in data set [8] (human, single oral dose of 75 mg, tablet) is 168 µg·h/mL. Further, the Cmax was 25 to 36 µM in [8] (read-out: plasma Cmax, human, single oral dose of 75 mg, tablet) and ~50 µM in data set [8] (read-out: steady state drug level in plasma, Cmax, human, 75 mg tablet, oral dosing, steady state). Moreover, the concentration at 2 h is ~1 µM and ~442 ng/g in data set [5]; 4 µM in [6] (setting [16]); ~11 µM in [6] (setting [17]); ~4 µM and 1630 ng/mL in [6] (setting [18]); ~14 µM and ~6210 ng/mL in [6] (setting [19]). The “brain penetration relative to nirmatrelvir” value in [5] (mice, oral 30 mg/Kg, 2 hours) is listed as > 5 fold. Further, in data set [5], the brain permeability result is on record as “brain-permeable”.

`CC(C)c1nc(CN(C)C(=O)N[C@H](C(=O)N[C@@H](Cc2ccccc2)C[C@H](O)[C@H](Cc2ccccc2)NC(=O)OCc2cncs2)C(C)C)cs1` [DDL-751, ritonavir]: the IFN induction entry in data set [1] (at the concentration tested) is recorded as “did not produce IFN induction”.
